Measurements: ChEMBL document CHEMBL5715952 (Oncotarget, 2015)
Activity calls are given as the source filed them. The rule behind the calls is not given here.

Tests used:
Proteasome [1] = experiment: Ratio of IC50 for inhibition of proteasome in human ANBL6 cells assessed as reduction of cell viability to IC50 for inhibition of proteasome in human ANBL6/BR resistant cells assessed as reduction of cell viability; conditions: condition multiple myeloma
ANBL-6 [2] = experiment: Induction of apoptosis in wild-type human ANBL-6 cells assessed as late apoptosis at 20 nM incubated for 72 hrs by annexin V and 7-AAD staining by flow cytometry analysis (Rvb=26 %); assay type: functional
[3] = target: T1, Bromodomain and extra-terminal motif (BET) (Homo sapiens) (UniProt P25440+O60885+Q58F21+Q15059); experiment: Inhibition of BET in human ANBL-6 WT cells assessed as increase in protein NOXA expression level at 20 nM by immunoblot analysis; assay type: cell-based
[4] = target: T1, Bromodomain and extra-terminal motif (BET) (Homo sapiens); experiment: Inhibition of BET in human ANBL-6 WT cells assessed as change in protein MYC expression level at 20 nM by immunoblot analysis; assay type: cell-based
[5] = system: Bortezomib-resistant ANBL6; experiment: Induction of apoptosis in human bortezomib-resistant ANBL6 cells assessed as early apoptosis at 20 nM incubated for 72 hrs by annexin V and 7-AAD staining by flow cytometry analysis (Rvb=15 %); assay type: functional
Proteasome [6] = experiment: Ratio of IC50 for inhibition of proteasome in human RPMI-8226 cells assessed as reduction of cell viability to IC50 for inhibition of proteasome in human RPMI-8226/BR resistant cells assessed as reduction of cell viability; conditions: condition multiple myeloma
ANBL-6 [7] = experiment: Induction of apoptosis in wild-type human ANBL-6 cells assessed as viable at 20 nM incubated for 72 hrs by annexin V and 7-AAD staining by flow cytometry analysis (Rvb=59 %); assay type: functional
Proteasome [8] = experiment: Inhibition of proteasome in Melphalan Resistant human RPMI-8226 cells assessed as reduction of cell growth incubated for 72 hrs by CellTiter 96 aqueous one solution cell proliferation assay; conditions: Melphalan-resistant RPMI-8226 cell
Proteasome [9] = experiment: Inhibition of proteasome in human bortezomib-resistant ANBL6 cells assessed as reduction of cell growth incubated for 72 hrs by CellTiter 96 aqueous one solution cell proliferation assay
Proteasome [10] = experiment: Inhibition of proteasome in human U-266 cells assessed as reduction of cell growth incubated for 72 hrs by CellTiter 96 aqueous one solution cell proliferation assay; conditions: U-266, 72 h
[11] = target: T1, Bromodomain and extra-terminal motif (BET) (Homo sapiens); experiment: Inhibition of BET in human bortezomib-resistant ANBL6 cells assessed as increase in protein NOXA expression level at 20 nM by immunoblot analysis; assay type: cell-based; conditions: Bortezomib-resistant ANBL6 cell
[12] = system: Bortezomib-resistant ANBL6; experiment: Induction of apoptosis in human bortezomib-resistant ANBL6 cells assessed as late apoptosis at 20 nM incubated for 72 hrs by annexin V and 7-AAD staining by flow cytometry analysis (Rvb=5 %); assay type: functional
[13] = target: T1, Bromodomain and extra-terminal motif (BET) (Homo sapiens); experiment: Inhibition of BET in human bortezomib-resistant ANBL6 cells assessed as change in protein MYC expression level at 20 nM by immunoblot analysis; assay type: cell-based; conditions: Bortezomib-resistant ANBL6 cell
Proteasome [14] = experiment: Inhibition of proteasome in human ANBL-6 cells assessed as reduction of cell growth incubated for 72 hrs by CellTiter 96 aqueous one solution cell proliferation assay; conditions: ANBL-6, 72 h
Proteasome [15] = experiment: Inhibition of proteasome in bortezomib Resistant human RPMI-8226 cells assessed as reduction of cell growth incubated for 72 hrs by CellTiter 96 aqueous one solution cell proliferation assay; conditions: Bortezomib-resistant RPMI-8226, 72 h
Proteasome [16] = experiment: Inhibition of proteasome in human RPMI-8226 cells assessed as reduction of cell growth incubated for 72 hrs by CellTiter 96 aqueous one solution cell proliferation assay; conditions: RPMI-8226, 72 h
[17] = system: Bortezomib-resistant ANBL6; experiment: Induction of apoptosis in human bortezomib-resistant ANBL6 cells assessed as viable at 20 nM incubated for 72 hrs by annexin V and 7-AAD staining by flow cytometry analysis (Rvb=80 %); assay type: functional
ANBL-6 [18] = experiment: Induction of apoptosis in wild-type human ANBL-6 cells assessed as early apoptosis at 20 nM incubated for 72 hrs by annexin V and 7-AAD staining by flow cytometry analysis (Rvb=14 %); assay type: functional
[19] = Ratio of IC50 for inhibition of FLT3/cKIT/FGFR1/VEGFR1/PDGFR/CSF1R in human RPMI-8226 cells assessed as reduction of cell viability to IC50 for inhibition of FLT3/cKIT/FGFR1/VEGFR1/PDGFR/CSF1R in human melphalan-resistant RPMI-8226 cells assessed as reduction of cell viability; conditions: time 72 hrs; condition multiple myeloma
ANBL-6 [20] = experiment: cells; conditions: Homo sapiens, ANBL-6, 72 h
[21] = Ratio of IC50 for inhibition of FLT3/cKIT/FGFR3/VEGFR2/PDGFR/CSF1R in human RPMI-8226 cells assessed as reduction of cell viability to IC50 for inhibition of FLT3/cKIT/FGFR3/VEGFR2/PDGFR/CSF1R in human RPMI-8226/BR resistant cells assessed as reduction of cell viability; conditions: condition multiple myeloma
cells [22] = conditions: Homo sapiens, Bortezomib-resistant RPMI-8226, 72 h
[23] = Ratio of IC50 for inhibition of FLT3/cKIT/FGFR3/VEGFR3/PDGFR/CSF1R in human RPMI-8226 cells assessed as reduction of cell viability to IC50 for inhibition of FLT3/cKIT/FGFR3/VEGFR3/PDGFR/CSF1R in human RPMI-8226/BR resistant cells assessed as reduction of cell viability; conditions: condition multiple myeloma
cells [24] = conditions: Homo sapiens, Melphalan-resistant RPMI-8226 cell, 72 h
[25] = system: Bortezomib-resistant ANBL6; experiment: cells; conditions: Homo sapiens, Bortezomib-resistant ANBL6, 72 h
[26] = Ratio of IC50 for inhibition of FLT3/cKIT/FGFR1/VEGFR2/PDGFR/CSF1R in human ANBL6 cells assessed as reduction of cell viability to IC50 for inhibition of FLT3/cKIT/FGFR1/VEGFR2/PDGFR/CSF1R in human ANBL6/BR resistant cells assessed as reduction of cell viability; conditions: condition multiple myeloma
[27] = Ratio of IC50 for inhibition of FLT3/cKIT/FGFR3/VEGFR2/PDGFR/CSF1R in human RPMI-8226 cells assessed as reduction of cell viability to IC50 for inhibition of FLT3/cKIT/FGFR3/VEGFR2/PDGFR/CSF1R in human melphalan-resistant RPMI-8226 cells assessed as reduction of cell viability; conditions: time 72 hrs; condition multiple myeloma
[28] = Ratio of IC50 for inhibition of FLT3/cKIT/FGFR3/VEGFR3/PDGFR/CSF1R in human ANBL6 cells assessed as reduction of cell viability to IC50 for inhibition of FLT3/cKIT/FGFR3/VEGFR3/PDGFR/CSF1R in human ANBL6/BR resistant cells assessed as reduction of cell viability; conditions: condition multiple myeloma
[29] = Ratio of IC50 for inhibition of FLT3/cKIT/FGFR1/VEGFR3/PDGFR/CSF1R in human ANBL6 cells assessed as reduction of cell viability to IC50 for inhibition of FLT3/cKIT/FGFR1/VEGFR3/PDGFR/CSF1R in human ANBL6/BR resistant cells assessed as reduction of cell viability; conditions: condition multiple myeloma
[30] = Ratio of IC50 for inhibition of FLT3/cKIT/FGFR3/VEGFR1/PDGFR/CSF1R in human ANBL6 cells assessed as reduction of cell viability to IC50 for inhibition of FLT3/cKIT/FGFR3/VEGFR1/PDGFR/CSF1R in human ANBL6/BR resistant cells assessed as reduction of cell viability; conditions: condition multiple myeloma
[31] = Ratio of IC50 for inhibition of FLT3/cKIT/FGFR3/VEGFR1/PDGFR/CSF1R in human RPMI-8226 cells assessed as reduction of cell viability to IC50 for inhibition of FLT3/cKIT/FGFR3/VEGFR1/PDGFR/CSF1R in human melphalan-resistant RPMI-8226 cells assessed as reduction of cell viability; conditions: time 72 hrs; condition multiple myeloma
[32] = Ratio of IC50 for inhibition of FLT3/cKIT/FGFR3/VEGFR1/PDGFR/CSF1R in human RPMI-8226 cells assessed as reduction of cell viability to IC50 for inhibition of FLT3/cKIT/FGFR3/VEGFR1/PDGFR/CSF1R in human RPMI-8226/BR resistant cells assessed as reduction of cell viability; conditions: condition multiple myeloma
RPMI-8226 = experiment: Cytotoxicity against human RPMI-8226 cells assessed as reduction of cell growth incubated for 72 hrs by CellTiter 96 aqueous one solution cell proliferation assay; assay type: functional, cell-based; conditions: RPMI-8226, 72 h
[33] = Ratio of IC50 for inhibition of FLT3/cKIT/FGFR1/VEGFR1/PDGFR/CSF1R in human RPMI-8226 cells assessed as reduction of cell viability to IC50 for inhibition of FLT3/cKIT/FGFR1/VEGFR1/PDGFR/CSF1R in human RPMI-8226/BR resistant cells assessed as reduction of cell viability; conditions: condition multiple myeloma
[34] = Ratio of IC50 for inhibition of FLT3/cKIT/FGFR3/VEGFR2/PDGFR/CSF1R in human ANBL6 cells assessed as reduction of cell viability to IC50 for inhibition of FLT3/cKIT/FGFR3/VEGFR2/PDGFR/CSF1R in human ANBL6/BR resistant cells assessed as reduction of cell viability; conditions: condition multiple myeloma
U-266 = experiment: cells; conditions: Homo sapiens, U-266, 72 h
[35] = Ratio of IC50 for inhibition of FLT3/cKIT/FGFR1/VEGFR1/PDGFR/CSF1R in human ANBL6 cells assessed as reduction of cell viability to IC50 for inhibition of FLT3/cKIT/FGFR1/VEGFR1/PDGFR/CSF1R in human ANBL6/BR resistant cells assessed as reduction of cell viability; conditions: condition multiple myeloma
[36] = Ratio of IC50 for inhibition of FLT3/cKIT/FGFR1/VEGFR2/PDGFR/CSF1R in human RPMI-8226 cells assessed as reduction of cell viability to IC50 for inhibition of FLT3/cKIT/FGFR1/VEGFR2/PDGFR/CSF1R in human melphalan-resistant RPMI-8226 cells assessed as reduction of cell viability; conditions: time 72 hrs; condition multiple myeloma
[37] = Ratio of IC50 for inhibition of FLT3/cKIT/FGFR1/VEGFR2/PDGFR/CSF1R in human RPMI-8226 cells assessed as reduction of cell viability to IC50 for inhibition of FLT3/cKIT/FGFR1/VEGFR2/PDGFR/CSF1R in human RPMI-8226/BR resistant cells assessed as reduction of cell viability; conditions: condition multiple myeloma
[38] = Ratio of IC50 for inhibition of FLT3/cKIT/FGFR1/VEGFR3/PDGFR/CSF1R in human RPMI-8226 cells assessed as reduction of cell viability to IC50 for inhibition of FLT3/cKIT/FGFR1/VEGFR3/PDGFR/CSF1R in human melphalan-resistant RPMI-8226 cells assessed as reduction of cell viability; conditions: time 72 hrs; condition multiple myeloma
[39] = Ratio of IC50 for inhibition of FLT3/cKIT/FGFR3/VEGFR3/PDGFR/CSF1R in human RPMI-8226 cells assessed as reduction of cell viability to IC50 for inhibition of FLT3/cKIT/FGFR3/VEGFR3/PDGFR/CSF1R in human melphalan-resistant RPMI-8226 cells assessed as reduction of cell viability; conditions: time 72 hrs; condition multiple myeloma
[40] = Ratio of IC50 for inhibition of FLT3/cKIT/FGFR1/VEGFR3/PDGFR/CSF1R in human RPMI-8226 cells assessed as reduction of cell viability to IC50 for inhibition of FLT3/cKIT/FGFR1/VEGFR3/PDGFR/CSF1R in human RPMI-8226/BR resistant cells assessed as reduction of cell viability; conditions: condition multiple myeloma

In the case of `CC(C)C[C@H](NC(=O)[C@H](Cc1ccccc1)NC(=O)c1cnccn1)B(O)O` [BORTEZOMIB], the “Ratio IC50” value (Proteasome [1]) is reported as […], the Activity (ANBL-6 [2]) is reported as 22% and the inhibition [3] is reported as “Active”. For the same compound, the inhibition [4] was “inactive”, the Activity [5] was 45% and the “Ratio IC50” value (Proteasome [6]) was […]. It also gave an Activity (ANBL-6 [7]) of 7%, an IC50 (Proteasome [8]) of […] and an IC50 (Proteasome [9]) of […]. The IC50 (Proteasome [10]) was […], the inhibition [11] was “Active” and the Activity [12] was 6%. For the same compound, the inhibition [13] was “inactive”, the IC50 (Proteasome [14]) was […] and the IC50 (Proteasome [15]) was […]. It also gave an IC50 (Proteasome [16]) of […], an Activity [17] of 49% and an Activity (ANBL-6 [18]) of 71%.

For `CN1CCN(c2ccc3nc(-c4c(N)c5c(F)cccc5[nH]c4=O)[nH]c3c2)CC1` [DOVITINIB], the “Ratio IC50” value [19] was 2.6, the IC50 (ANBL-6 [20]) was 10000 nM and the “Ratio IC50” value [21] was 0.38. For the same compound, the IC50 (cells [22]) was 5620 nM, the “Ratio IC50” value [23] was 0.38 and the IC50 (cells [24]) was 2950 nM. The IC50 [25] was 6610 nM, the “Ratio IC50” value [26] was 1.51 and the “Ratio IC50” value [27] was 2.6. The “Ratio IC50” value [28] was 1.51, the “Ratio IC50” value [29] was 1.51 and the “Ratio IC50” value [30] was 1.51. For the same compound, the “Ratio IC50” value [31] was 2.6, the “Ratio IC50” value [32] was 0.38 and the IC50 (RPMI-8226) was 2140 nM. For the same compound, the “Ratio IC50” value [33] was 0.38, the “Ratio IC50” value [34] was 1.51 and the IC50 (U-266) was 6760 nM. For the same compound, the “Ratio IC50” value [35] was 1.51, the “Ratio IC50” value [36] was 2.6 and the “Ratio IC50” value [37] was 0.38. The “Ratio IC50” value [38] was 2.6, the “Ratio IC50” value [39] was 2.6 and the “Ratio IC50” value [40] was 0.38.
